From patent US6858650B1, “Stable salts of novel derivatives of 3,3-diphenylpropylamines” (Schwarz Pharma AG, priority 1999, dated 2005) come the findings set out here.

SMILES strings stand for the structures.

Data set [1] can be described thus: Stability of the solid salt / on storage. It is filed as physicochemical.
The nature of data set [2]: Hygroscopicity of the solid salt. It counts as physicochemical.

Turning to `CC(C)C(=O)Oc1ccc(CO)cc1C(CCN(C(C)C)C(C)C)c1ccccc1.Cl` (stereo not drawn) [2b, R-(+)-2-(3-diisopropylamino-1-phenylpropyl)-4-hydroxymethylphenyl-isobutyrate ester hydrochloride hydrate], the stability result in data set [1] (hydrate-containing product from humid solvent with at least one mole equivalent of water) is given as “stable”. In data set [2] (anhydrous product crystallised from isobutyrate chloride solution), the hygroscopicity entry is on record as “very hygroscopic”.
Regarding `CC(C)C(=O)Oc1ccc(CO)cc1C(CCN(C(C)C)C(C)C)c1ccccc1.O=C(O)/C=C/C(=O)O` (stereo not drawn) [2a, R-(+)-2-(3-diisopropylamino-1-phenylpropyl)-4-hydroxymethylphenyl-isobutyrate ester hydrogen fumarate], the stability result in data set [1] (crystalline hydrogen fumarate salt, at RT) was “stable at RT”. The hygroscopicity entry in data set [2] (crystalline hydrogen fumarate salt) was “non-hygroscopic”.
